On the set-up of data set [1]: method as in PMID 31244223. The conditions noted are these: pooled human liver microsomes; previously reported ref 14; cited from earlier work. For orientation: Liver microsomes are vesicles of endoplasmic reticulum, rich in cytochrome P450 enzymes.
Details of data set [2]: method as in PMID 31244223. Conditions: previously reported ref 14; cited from earlier work.
Data set [3] is described as follows: Plasma protein binding by equilibrium dialysis. It counts as in vitro ADME. The conditions noted are these: 37 °C; for Plasma Protein Binding Bound %: 5 μM, 6 h; for fraction unbound at 6 h, 5 μM: plasma, read-out: Plasma Protein Binding Free %. The protocol: Equilibrium dialysis was used to determine the plasma protein binding. All of the test compounds were treated in triplicate by RED Rapid Equilibrium Dialysis Device (Thermo Scientific, Waltham, MA, USA). In brief, the initial compound concentration (5 μM) in the plasma chamber was first set, followed by the addition of phosphate buffered saline (PBS) to the receiver chamber. The Equilibrium Dialysis Device was allowed to shake for 6 h in a 37 °C incubator. Then, 25 μL solution was sampled from the plasma and PBS chambers, respectively, and they were diluted with either blank PBS or plasma to achieve a 1:1 ratio of plasma: PBS for all samples. The concentrations of the tested compounds in the plasma and PBS chambers were determined by LC–MS/MS. The fraction bound was calculated as ([plasma]—[PBS])/[plasma].
On the technique in general: In equilibrium dialysis free small molecules cross a membrane that holds back macromolecules.

The nature of data set [4]: Metabolic stability assay in pooled human liver microsomes. It counts as in vitro ADME. The conditions noted are these: pH 7.4, 37 °C, NADPH, read-out: Half-Life in Human Hepatic Microsomes. The method, then: Each compound was incubated in duplicate with pooled human liver microsomes at 37 °C. The tested compounds were pre-incubated with pooled human liver microsomes in phosphate buffer (pH 7.4) for 5 min in a shaking water bath at 37 °C. The reaction was initiated by adding a NADPH-generating system and incubated for 0, 15, 30, 45, and 60 min. The reaction was stopped by transferring the incubation mixture to CH3CN/MeOH. Samples were then mixed and centrifuged. Supernatants were used for HPLC–MS/MS analysis. Data were calculated as percent parent compounds remaining by assuming zero-minute time point peak area ratio (analyte/IS) as 100% and dividing remaining time point peak area ratios by the zero-minute time point peak area ratio. Data were subjected to fit a first-order decay model to calculate both the slope and half-life.

The test system of the next data set is MSSA 1. The experiment in a line: MIC determination (LB agar dilution), clinical MSSA strain 1. The conditions noted are these: Staphylococcus aureus, at least two replicates. It counts as cell-based. The protocol:
(§1) All of the tested compounds were prepared to different concentrations with methanol, and 150 μL of the respective methanol solution was used to mix with 15 mL LB (Luria–Bertani) medium with 1% agar in each Petri dish. Linezolid and PTM were used as reference compounds for comparison. In vitro bioassay for compounds was carried out using clinical strains of S. aureus, E. coli, and Klebsilla pneumoniae. The bacteria were cultivated in LB medium and incubated for 16 h at 37 °C, 250 rpm. The resulting bacteria were diluted to approximate 0.25 at OD600, which were further diluted 10_4-fold. The diluted bacteria (2 μL) were added to Petri dish containing the respective compounds. The resulting Petri dishes were incubated for 16 h at 37 °C. The determination of MIC is the concentration of Petri dishes with no visible growth of bacteria.
(In general: In agar dilution, organisms are placed on agar that contains the substance at set levels.)

In the next data set the test system is S. aureus ATCC 29213. The experiment in a line: MIC determination (LB agar dilution), S. aureus ATCC 29213. Format: cell-based. The conditions noted are these: Staphylococcus aureus, ATCC29213, at least two replicates. The method, then: as §1
In another data set the test system is MSSA 2. The experiment in a line: MIC determination (LB agar dilution), clinical MSSA strain 2. It counts as cell-based. Conditions: Staphylococcus aureus, at least two replicates. The method, then: as §1
The next data set relates to MRSA 4. The experiment in a line: MIC determination (LB agar dilution), clinical MRSA strain 4. Format: cell-based. Conditions: Staphylococcus aureus, at least two replicates. The protocol: as §1
The subject of another data set is MRSA 3. As to the kind of experiment: MIC determination (LB agar dilution), clinical MRSA strain 3. Conditions: Staphylococcus aureus, at least two replicates. It counts as cell-based. The method, then:
as §1

The subject of data set [5] is MRSA. Format: in vivo. Conditions: 10 mg/kg intraperitoneal at 1 h and 5 h after infection, n = 5.
Data set [6] deals with MRSA. The experiment in a line: Mouse skin infection with MRSA. Format: in vivo, BABL/c mice. The protocol:
Mouse MRSA skin infection study was performed as described before. Female BABL/c mice (20–22 g, 7-weeks old) were anesthetized by intraperitoneal injection of 4% chloral hydrate (200 μL), and the hair of mice back surface was removed and washed with povidone iodine–propanol solution. A gauze (15 × 15 mm) was preheated in boiling water (90 °C) for 10 min, and then placed on the back of each mouse for 40 s to generate the burns. Next, the burn was bound with sterile gauze and infected with 1 × 10^8 colony-forming units (CFU) of MRSA. An open wound was witnessed at the burns after 48 h post infection. The infected mice were then divided into three groups (5 per group). A4 (200 μg) was formulated into 2% ointment consisting of 1.4% carbomer, 1.4% triethanolamine, 14% propanediol, 14% glycerinum, and 1% azone. Mupirocin (2% w/w) were used as the positive control, while vehicle used as negative control. All mice were treated twice a day for 7 days. Mice were euthanized after 24 h of the last treatment, and the wound area was slightly swabbed with 70% ethanol. Wound area (1 cm^2) was excised, homogenized, and plated onto TSB agar plates to count viable bacteria. Other skin biopsy specimens removed from the wounds were stored at 4% paraformaldehyde solution to be used for hematoxylin and eosin (HE) staining.

Each structure is given as a SMILES string. Converted amounts (≈) assume the structure as drawn. Read-outs that look alike come from different tables or passages of the source.

Turning to `CCSC1CC(=O)C(C)(CCC(=O)Nc2c(O)ccc(C(=O)O)c2O)C2C3CC4CC12CC4(C)O3` (stereo not shown) [1a, PTM-2t], the “Half-Life in Human Hepatic Microsomes” value in [1] was 0.367 h. In data set [2], the “Plasma Protein Binding Bound %” value is 35% and the “Plasma Protein Binding Free %” value is 65%.
Usually half-life stands for the time needed for the level to fall by half in the phase considered. Regarding `CC12CC34C=C(c5ccc6ccc7cccc8ccc5c6c78)C(=O)C(C)(CCC(=O)Nc5c(O)ccc(C(=O)O)c5O)C3C(CC1C4)O2` (stereo not shown) [1b, 6-pyrenyl PTM, reference compound], in data set [3], the “Plasma Protein Binding Bound %” value stood at 99.9% and the fraction unbound at 6 h, 5 μM was found to be 0.001. For the same compound, the half-life in data set [4] was 1.22 h.
Broadly, the MIC is the smallest concentration in the dilution series that meets the test's criterion for growth inhibition. Read a high MIC as weaker potency. Take `CCCCCCCCCCCCCCCCCCOC(=O)C=CC1=CC23CC4CC(OC4(C)C2)C3C(C)(CCC(=O)Nc2c(O)ccc(C(=O)O)c2O)C1=O` (stereo not shown) [A5]: the MIC against MSSA 1, in the data set with S. aureus ATCC 29213, against MSSA 2, with MRSA 4 and against MRSA 3 was more than 64 µg/mL throughout. Moreover, in [3], the “Plasma Protein Binding Bound %” value stood at 99.2%. In addition, the fraction unbound at 6 h, 5 μM in [3] was 0.008. Besides, the half-life in data set [4] was 1.27 h.
With `CC12CC34C=C(C=CC(=O)N5CCOCC5)C(=O)C(C)(CCC(=O)Nc5c(O)ccc(C(=O)O)c5O)C3C(CC1C4)O2` (stereo not shown) [A10], the MIC against MSSA 1, in the data set with S. aureus ATCC 29213, against MSSA 2, against MRSA 4 and against MRSA 3 was 16 µg/mL (≈ 27.6 µM) each time. Further, in data set [3], the “Plasma Protein Binding Bound %” value is 77%. In addition, in data set [3], the fraction unbound at 6 h, 5 μM turned out to be 0.23. The half-life in data set [4] is more than 2 h.
Take `CC12CC34C=C(C#Cc5cccc(F)c5)C(=O)C(C)(CCC(=O)Nc5c(O)ccc(C(=O)O)c5O)C3C(CC1C4)O2` (stereo not shown) [B8]: the MIC with MSSA 1, in the data set on S. aureus ATCC 29213, in the data set on MSSA 2, with MRSA 4 and against MRSA 3 was 1 µg/mL (≈ 1.79 µM) in each case. In addition, the “Plasma Protein Binding Bound %” value in data set [3] is 99.4%. The fraction unbound at 6 h, 5 μM in data set [3] came to 0.006. In addition, the “mice died within 24 h” value with MRSA [5] amounted to 40%. In data set [4], the half-life was 1.6 h.
`CC(=O)C1=C(C)OC(Cc2ccc(F)cc2)=C2C(=O)C(C)(CCC(=O)Nc3c(O)ccc(C(=O)O)c3O)C3C4CC5CC3(CC5(C)O4)C12` (stereo not shown) [C6]: the MIC in the data set with MSSA 1, against S. aureus ATCC 29213, against MSSA 2, against MRSA 4 and in the data set with MRSA 3 was 32 µg/mL (≈ 48.5 µM) each time. In addition, the “Plasma Protein Binding Bound %” value in data set [3] was found to be 99.6%. In addition, in data set [3], the fraction unbound at 6 h, 5 μM worked out at 0.004. Also, the half-life in data set [4] turned out to be 0.283 h.
On to `CC12C[C@@]34C=CC(=O)[C@@](C)(CCC(=O)Nc5c(O)ccc(C(=O)O)c5O)C3[C@H](CC1C4)O2` (stereo partly shown) [PTM, Platensimycin], for which the minimum inhibitory concentration (MIC) against MSSA 1, against S. aureus ATCC 29213, against MSSA 2, against MRSA 4 and in the data set with MRSA 3 was 1 µg/mL (≈ 2.27 µM) in each case. Further, the “Half-Life in Human Hepatic Microsomes” value in data set [1] was 0.85 h. The “survival of infected mice” value in the data set on MRSA [5] (tracked 7 days) is on record as “died after MRSA infection within 24 h”. In [2], the “Plasma Protein Binding Free %” value is recorded as 34%.
`CC12CC34C=C(I)C(=O)C(C)(CCC(=O)Nc5c(O)ccc(C(=O)O)c5O)C3C(CC1C4)O2` (stereo not shown) [compound 4, 6-iodo PTM]: the MIC in the data set with MSSA 1, against S. aureus ATCC 29213, with MSSA 2, in the data set with MRSA 4 and against MRSA 3 was 1 µg/mL (≈ 1.76 µM) in each case. The “Plasma Protein Binding Bound %” value in data set [3] is given as 87%. The fraction unbound at 6 h, 5 μM in [3] was determined as 0.13. In addition, in the data set on MRSA [5], the “mice died within 24 h” value is 40%. Besides, the half-life in [4] turned out to be 0.967 h.
`C/C(=C\C(=O)OCCCCCCCCC(=O)O)C[C@@H]1OC[C@H](C[C@@H]2O[C@H]2[C@@H](C)[C@H](C)O)[C@@H](O)[C@H]1O` [mupirocin, reference compound]: the “load of S. aureus on treated skin” value with MRSA [6] (2 mg topical twice a day for 7 days, n = 5/group) is “(6.5 ± 2.4) × 10^5 CFU/g”. Further, in the data set on MRSA [6] (topical twice a day for 7 days, observation and H&E staining), the “healing of the infected skin” value was “showed the healing of the skin”.
